This note sets out measurements from ChEMBL document CHEMBL1201862, “PubChem BioAssay data set” (2004).

Experiment [1] is described as follows: cytotoxicity toward NIH3T3 fibroblasts, dose response, counter-screen, cell-based, ATP luminescence, mouse fibroblasts (AID 2010).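 Further: cells exposed to compound for about 90 hours before reading.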 It counts as functional. (The purpose of a counterscreen is to sort out artefacts and off-target activity.)
The target of a further experiment is Protein Wnt-3a (Mus musculus, UniProt P27467). Briefly: Wnt3a-driven reporter signaling inhibition, dose response, selectivity assay for Gli-SUFU antagonist project, Wnt-LIGHT cells, luminescence (AID 651570).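 Further: Wnt-LIGHT reporter cells stimulated with conditioned medium from Wnt3a-producing cells.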 The class given is functional. The settings on record: read-out: IC50_Mean.
Experiment [2] is described as follows: inhibitors of intracellular T. cruzi replication, confirmation, NIH3T3 host cells, beta-gal luminescence (AID 2044).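 Further: intracellular parasites grown in NIH/3T3 mouse fibroblasts as host cells; luminescent beta-galactosidase reporter signal from transgenic T. cruzi replicating inside host cells; inhibitors lower the luminescence signal.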 The class given is functional, cell-based.
The target of experiment [3] is T1, High affinity choline transporter 1 (Homo sapiens, UniProt Q9GZV3).
T1 sequence (Q9GZV3 whole entry): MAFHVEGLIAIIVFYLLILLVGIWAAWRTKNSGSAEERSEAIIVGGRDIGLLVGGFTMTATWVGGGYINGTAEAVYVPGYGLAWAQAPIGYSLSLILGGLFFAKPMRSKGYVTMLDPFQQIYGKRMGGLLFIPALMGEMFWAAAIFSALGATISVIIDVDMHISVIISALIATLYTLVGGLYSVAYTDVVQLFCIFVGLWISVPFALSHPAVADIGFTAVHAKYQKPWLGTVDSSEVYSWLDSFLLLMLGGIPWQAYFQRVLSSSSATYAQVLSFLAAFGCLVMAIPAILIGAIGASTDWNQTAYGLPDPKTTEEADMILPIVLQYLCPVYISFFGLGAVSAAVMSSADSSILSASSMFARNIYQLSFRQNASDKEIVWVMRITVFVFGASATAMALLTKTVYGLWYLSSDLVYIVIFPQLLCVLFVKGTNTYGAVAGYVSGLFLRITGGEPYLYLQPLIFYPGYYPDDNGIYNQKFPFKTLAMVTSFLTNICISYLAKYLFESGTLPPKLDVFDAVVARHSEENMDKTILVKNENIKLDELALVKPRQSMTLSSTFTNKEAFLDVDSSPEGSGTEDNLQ
The experiment can be described thus: CHT activators, dose response, cell-based, 10-point CRC, membrane potential dye (AID 602376). The class given is functional.

Experiment [4] has as its target Potassium voltage-gated channel subfamily KQT member 2 (Rattus norvegicus, UniProt O88943). Briefly: KCNQ2 potassium channel inhibitors, dose response, cell-based, automated electrophysiology, set II, rat KCNQ2 (AID 588637). The class given is functional.
Experiment [5] deals with T1, High affinity choline transporter 1. Briefly: CHT inhibitors, dose response, cell-based, 5-point CRC, membrane potential dye (AID 504840). The class given is functional.
Experiment [6] has the same target. Briefly: CHT inhibitors, dose response, cell-based, 10-point CRC, membrane potential dye (AID 588401).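 Further: membrane potential dye fluorescence of choline-evoked depolarization via CHT.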 The class given is functional.
In experiment [7] the target is T2, Apoptotic protease-activating factor 1 (Homo sapiens, UniProt O14727).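 Further: caspase-3 cleavage of fluorogenic Rh110 DEVD substrate downstream of apoptosome activation.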
T2 sequence (O14727 whole entry): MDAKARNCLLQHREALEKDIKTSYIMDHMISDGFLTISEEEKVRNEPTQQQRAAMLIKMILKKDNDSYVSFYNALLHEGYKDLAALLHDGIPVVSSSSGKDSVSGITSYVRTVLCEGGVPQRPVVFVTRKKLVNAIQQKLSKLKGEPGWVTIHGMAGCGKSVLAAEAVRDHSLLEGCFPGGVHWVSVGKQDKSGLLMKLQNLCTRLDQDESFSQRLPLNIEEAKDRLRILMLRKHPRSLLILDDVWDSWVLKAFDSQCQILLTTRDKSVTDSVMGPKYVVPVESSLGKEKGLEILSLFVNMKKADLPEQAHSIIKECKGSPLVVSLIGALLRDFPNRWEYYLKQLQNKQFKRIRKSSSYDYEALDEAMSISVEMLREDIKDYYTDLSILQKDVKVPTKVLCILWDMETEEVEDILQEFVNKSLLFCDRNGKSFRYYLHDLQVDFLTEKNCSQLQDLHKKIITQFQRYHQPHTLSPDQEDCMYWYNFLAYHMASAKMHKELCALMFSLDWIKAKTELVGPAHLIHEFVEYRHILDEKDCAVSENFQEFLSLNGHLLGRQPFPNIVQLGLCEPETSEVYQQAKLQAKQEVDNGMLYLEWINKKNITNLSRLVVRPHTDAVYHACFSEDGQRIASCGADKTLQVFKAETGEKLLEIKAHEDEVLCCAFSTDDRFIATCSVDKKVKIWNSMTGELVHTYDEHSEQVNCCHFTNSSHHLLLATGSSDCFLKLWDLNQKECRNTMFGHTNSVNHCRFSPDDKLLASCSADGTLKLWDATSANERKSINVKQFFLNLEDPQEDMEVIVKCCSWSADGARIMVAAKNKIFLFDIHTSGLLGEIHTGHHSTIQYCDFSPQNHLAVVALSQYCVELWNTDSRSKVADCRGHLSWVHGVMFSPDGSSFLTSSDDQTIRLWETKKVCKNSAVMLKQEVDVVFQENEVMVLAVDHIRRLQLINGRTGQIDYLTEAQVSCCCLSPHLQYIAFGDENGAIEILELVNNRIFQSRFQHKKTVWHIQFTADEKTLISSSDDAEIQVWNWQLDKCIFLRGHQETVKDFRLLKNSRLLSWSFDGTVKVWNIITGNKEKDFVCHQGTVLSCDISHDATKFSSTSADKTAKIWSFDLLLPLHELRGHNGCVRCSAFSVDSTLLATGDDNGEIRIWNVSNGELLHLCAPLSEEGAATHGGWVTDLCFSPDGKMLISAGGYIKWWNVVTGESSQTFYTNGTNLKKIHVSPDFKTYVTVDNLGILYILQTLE
The experiment can be described thus: SAR analysis of small molecule Activators of Apaf-1 in a Fluorescent assay. The class given is functional. The settings on record: read-out: EC50_Mean.

Another experiment deals with T3, Caspase-3 (Homo sapiens, UniProt P42574).
T3 sequence (P42574 whole entry): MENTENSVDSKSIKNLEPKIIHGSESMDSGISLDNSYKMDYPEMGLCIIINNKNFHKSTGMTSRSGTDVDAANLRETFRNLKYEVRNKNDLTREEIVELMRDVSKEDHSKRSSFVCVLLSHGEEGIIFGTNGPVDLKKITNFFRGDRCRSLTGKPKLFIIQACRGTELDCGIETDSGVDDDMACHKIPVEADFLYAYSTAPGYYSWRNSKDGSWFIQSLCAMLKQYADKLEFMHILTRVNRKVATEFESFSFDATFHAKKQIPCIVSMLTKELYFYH
Briefly: SAR Analysis of small molecule inhibitors of Sentrin-specific proteases (SENPs) using a Caspase-3 Selectivity assay. [Related pubchem assays (depositor defined):AID2540, AID2599, AID434973, AID489001]. It counts as functional.

Experiment [8] has as its target T4, Sentrin-specific protease 8 (Homo sapiens, UniProt Q96LD8).
T4 sequence (Q96LD8 whole entry): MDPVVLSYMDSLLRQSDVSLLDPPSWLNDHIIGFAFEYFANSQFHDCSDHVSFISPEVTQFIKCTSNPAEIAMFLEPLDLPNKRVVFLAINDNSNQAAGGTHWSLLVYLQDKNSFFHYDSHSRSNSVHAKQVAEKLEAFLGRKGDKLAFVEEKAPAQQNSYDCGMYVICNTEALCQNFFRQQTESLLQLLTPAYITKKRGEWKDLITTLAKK
The experiment can be described thus: SENP8 protease inhibitors, SAR follow-up, biochemical, luminescence (AID 504501). It counts as functional.

For experiment [9], the target named is T5, Sentrin-specific protease 6 (Homo sapiens, UniProt Q9GZR1).
T5 sequence (Q9GZR1 whole entry): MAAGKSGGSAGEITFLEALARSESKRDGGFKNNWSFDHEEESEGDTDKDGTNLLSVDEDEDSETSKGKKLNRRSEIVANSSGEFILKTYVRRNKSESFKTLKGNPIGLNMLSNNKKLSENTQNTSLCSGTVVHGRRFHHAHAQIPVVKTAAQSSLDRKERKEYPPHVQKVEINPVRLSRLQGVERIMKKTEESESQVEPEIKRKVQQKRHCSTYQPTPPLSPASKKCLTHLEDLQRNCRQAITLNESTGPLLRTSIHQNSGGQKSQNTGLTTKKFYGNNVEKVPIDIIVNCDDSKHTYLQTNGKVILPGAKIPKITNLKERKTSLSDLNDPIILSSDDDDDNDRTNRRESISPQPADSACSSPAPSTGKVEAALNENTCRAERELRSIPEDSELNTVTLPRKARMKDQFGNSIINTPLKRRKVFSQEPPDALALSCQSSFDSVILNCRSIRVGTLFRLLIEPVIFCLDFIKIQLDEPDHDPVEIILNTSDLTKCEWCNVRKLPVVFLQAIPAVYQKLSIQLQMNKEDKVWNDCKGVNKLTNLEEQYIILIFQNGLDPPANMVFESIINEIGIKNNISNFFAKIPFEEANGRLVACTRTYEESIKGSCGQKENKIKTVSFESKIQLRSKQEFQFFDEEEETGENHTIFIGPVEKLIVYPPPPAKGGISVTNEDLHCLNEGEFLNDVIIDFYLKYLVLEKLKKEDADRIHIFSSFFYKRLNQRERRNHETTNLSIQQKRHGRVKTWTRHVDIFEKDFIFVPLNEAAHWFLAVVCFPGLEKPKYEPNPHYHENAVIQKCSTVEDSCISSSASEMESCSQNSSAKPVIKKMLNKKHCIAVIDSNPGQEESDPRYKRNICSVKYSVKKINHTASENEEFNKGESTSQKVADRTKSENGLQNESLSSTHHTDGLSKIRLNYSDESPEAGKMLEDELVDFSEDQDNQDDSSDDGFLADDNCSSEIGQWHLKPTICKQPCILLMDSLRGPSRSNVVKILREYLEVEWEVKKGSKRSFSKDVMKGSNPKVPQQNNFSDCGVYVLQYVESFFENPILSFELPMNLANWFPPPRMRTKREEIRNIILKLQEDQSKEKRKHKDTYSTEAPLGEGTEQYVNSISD
Briefly: SAR Analysis of small molecule inhibitors of Sentrin-specific protease 6 (SENP6) using a Luminescent assay. [Related pubchem assays (depositor defined):AID2582, AID2599]. It counts as functional.

The target in experiment [10] is T6, Sentrin-specific protease 7 (Homo sapiens, UniProt Q9BQF6).
T6 sequence (Q9BQF6 whole entry): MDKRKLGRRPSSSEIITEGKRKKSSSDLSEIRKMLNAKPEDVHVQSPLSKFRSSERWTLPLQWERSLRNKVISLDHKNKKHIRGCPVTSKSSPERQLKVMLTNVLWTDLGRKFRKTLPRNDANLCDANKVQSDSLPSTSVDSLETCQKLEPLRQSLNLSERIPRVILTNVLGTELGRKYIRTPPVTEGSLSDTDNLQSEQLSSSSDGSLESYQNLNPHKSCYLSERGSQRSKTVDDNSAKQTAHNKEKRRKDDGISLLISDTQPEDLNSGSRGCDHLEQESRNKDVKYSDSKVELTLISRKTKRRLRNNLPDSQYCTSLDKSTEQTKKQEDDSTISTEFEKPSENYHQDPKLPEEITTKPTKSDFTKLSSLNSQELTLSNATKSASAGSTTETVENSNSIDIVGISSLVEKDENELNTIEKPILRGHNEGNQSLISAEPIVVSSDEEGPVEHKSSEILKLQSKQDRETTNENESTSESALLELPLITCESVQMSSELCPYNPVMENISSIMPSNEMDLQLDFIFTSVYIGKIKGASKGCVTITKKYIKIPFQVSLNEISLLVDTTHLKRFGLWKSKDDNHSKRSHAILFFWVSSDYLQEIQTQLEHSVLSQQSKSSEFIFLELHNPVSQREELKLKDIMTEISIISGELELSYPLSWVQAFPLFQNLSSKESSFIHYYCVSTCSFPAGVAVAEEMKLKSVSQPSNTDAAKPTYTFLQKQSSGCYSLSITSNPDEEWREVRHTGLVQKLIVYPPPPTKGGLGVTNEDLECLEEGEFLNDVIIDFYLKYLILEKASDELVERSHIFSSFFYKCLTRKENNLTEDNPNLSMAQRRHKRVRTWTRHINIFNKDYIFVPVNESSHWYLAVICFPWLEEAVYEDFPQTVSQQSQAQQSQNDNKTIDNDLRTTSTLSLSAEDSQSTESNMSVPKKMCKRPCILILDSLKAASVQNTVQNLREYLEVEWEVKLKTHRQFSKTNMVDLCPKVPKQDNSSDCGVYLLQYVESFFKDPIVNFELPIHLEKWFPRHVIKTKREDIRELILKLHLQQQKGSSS
Briefly: SENP7 protease inhibitors, SAR follow-up, biochemical, luminescence (AID 504497). The class given is functional.

For experiment [11], the target named is Melanin-concentrating hormone receptor 1 (Homo sapiens, UniProt Q99705). The experiment can be described thus: Late-stage fluorescence-based counterscreen for antagonists of the G-protein coupled receptor 7 (GPR7): cell-based dose response assay to identify antagonists of the melanin-concentrating hormone receptor 1 (MCHR1) Set 5. It counts as functional.

Experiment [12] is described as follows: Luminescence Cell-Based Dose Confirmation HTS to Identify Inhibitors of Platelet Dense Granule Release. [Related pubchem assays: 1663 (Primary HTS), 1678 (Summary of Project)]. The class given is functional.
Experiment [13] addresses Luciferin 4-monooxygenase (Photinus pyralis, UniProt P08659). The experiment can be described thus: firefly luciferase enzyme inhibitors, dose response, biochemical, luminescence (AID 1891).

Structures are written as SMILES. The source made the active and inactive calls.

Luciferin 4-monooxygenase, sequence (P08659 whole entry): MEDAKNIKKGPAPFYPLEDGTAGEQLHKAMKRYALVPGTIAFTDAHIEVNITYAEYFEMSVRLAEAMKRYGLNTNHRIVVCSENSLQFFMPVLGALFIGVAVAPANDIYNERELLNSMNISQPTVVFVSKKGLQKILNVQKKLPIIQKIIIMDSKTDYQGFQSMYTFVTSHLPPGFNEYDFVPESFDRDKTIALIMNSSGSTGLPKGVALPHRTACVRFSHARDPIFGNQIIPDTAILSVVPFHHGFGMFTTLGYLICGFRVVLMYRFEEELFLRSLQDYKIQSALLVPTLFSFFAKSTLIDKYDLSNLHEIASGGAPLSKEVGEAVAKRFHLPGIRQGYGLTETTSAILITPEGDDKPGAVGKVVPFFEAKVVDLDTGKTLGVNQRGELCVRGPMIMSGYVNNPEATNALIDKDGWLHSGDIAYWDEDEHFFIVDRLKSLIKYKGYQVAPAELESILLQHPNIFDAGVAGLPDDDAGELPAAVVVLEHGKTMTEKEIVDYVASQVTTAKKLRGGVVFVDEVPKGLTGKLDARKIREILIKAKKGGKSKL
Potassium voltage-gated channel subfamily KQT member 2, sequence (O88943 whole entry): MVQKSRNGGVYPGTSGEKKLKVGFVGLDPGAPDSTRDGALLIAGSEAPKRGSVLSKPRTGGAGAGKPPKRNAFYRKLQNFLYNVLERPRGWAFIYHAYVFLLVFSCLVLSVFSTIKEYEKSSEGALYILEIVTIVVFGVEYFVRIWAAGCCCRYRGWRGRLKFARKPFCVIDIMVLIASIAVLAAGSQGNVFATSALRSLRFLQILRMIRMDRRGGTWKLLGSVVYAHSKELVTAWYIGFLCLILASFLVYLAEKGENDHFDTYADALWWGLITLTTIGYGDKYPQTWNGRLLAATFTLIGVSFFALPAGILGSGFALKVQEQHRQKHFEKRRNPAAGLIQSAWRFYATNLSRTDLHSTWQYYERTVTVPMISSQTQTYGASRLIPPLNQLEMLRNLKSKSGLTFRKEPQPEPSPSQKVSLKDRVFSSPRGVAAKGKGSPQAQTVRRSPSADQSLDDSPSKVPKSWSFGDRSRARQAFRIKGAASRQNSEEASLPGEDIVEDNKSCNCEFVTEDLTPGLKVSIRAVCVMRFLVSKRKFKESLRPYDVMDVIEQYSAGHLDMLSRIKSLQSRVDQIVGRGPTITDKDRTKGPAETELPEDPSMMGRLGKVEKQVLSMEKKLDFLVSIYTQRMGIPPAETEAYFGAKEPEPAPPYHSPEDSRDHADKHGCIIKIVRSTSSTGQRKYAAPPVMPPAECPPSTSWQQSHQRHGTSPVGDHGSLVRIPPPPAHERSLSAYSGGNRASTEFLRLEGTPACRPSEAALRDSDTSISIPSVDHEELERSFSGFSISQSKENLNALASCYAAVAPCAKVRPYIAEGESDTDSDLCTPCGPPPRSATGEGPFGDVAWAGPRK
Protein Wnt-3a, sequence (P27467 whole entry): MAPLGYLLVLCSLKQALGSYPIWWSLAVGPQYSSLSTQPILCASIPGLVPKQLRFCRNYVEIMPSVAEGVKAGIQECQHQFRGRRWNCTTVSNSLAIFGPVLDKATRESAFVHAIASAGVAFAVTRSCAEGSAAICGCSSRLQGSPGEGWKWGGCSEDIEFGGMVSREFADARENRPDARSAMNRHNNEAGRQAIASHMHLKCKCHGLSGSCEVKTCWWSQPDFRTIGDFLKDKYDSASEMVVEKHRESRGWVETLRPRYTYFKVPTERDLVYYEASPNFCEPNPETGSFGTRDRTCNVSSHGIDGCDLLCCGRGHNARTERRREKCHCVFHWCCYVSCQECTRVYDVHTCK
Melanin-concentrating hormone receptor 1, sequence (Q99705 whole entry): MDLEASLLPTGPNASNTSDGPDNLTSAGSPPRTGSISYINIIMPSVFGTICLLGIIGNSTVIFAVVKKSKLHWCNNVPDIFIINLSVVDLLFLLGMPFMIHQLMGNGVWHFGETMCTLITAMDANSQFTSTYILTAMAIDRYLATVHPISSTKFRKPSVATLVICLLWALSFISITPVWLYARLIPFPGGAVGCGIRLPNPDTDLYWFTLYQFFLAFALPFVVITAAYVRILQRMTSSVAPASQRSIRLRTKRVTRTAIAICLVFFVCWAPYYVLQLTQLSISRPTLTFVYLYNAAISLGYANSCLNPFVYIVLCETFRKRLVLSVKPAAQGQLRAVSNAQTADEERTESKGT

For the compound `N=c1c2c(n(Cc3ccc(F)cc3)c3c1CCC3)CCCC2`, the EC50 in [1] was > 60 µM (not active); in [2], 0.639 µM (active). In addition, the IC50 on Protein Wnt-3a is 13.8 µM (active).

On to `COc1ccc(S(=O)(=O)N2c3ccccc3OCC2C)cc1` (stereo not drawn), for which, in [3], the EC50 is 13.9 µM (active).

On to `CC1CCN(C(=O)Cn2c(=O)n(Cc3ccc4c(c3)OCO4)c(=O)c3ccccc32)CC1`, for which the IC50 in experiment [4] was 3.11 µM (active).

In the case of `CCN1CCCC1CNC(=O)c1ccc2c(c1)N(Cc1cccc(Cl)c1)C(=O)c1ccccc1S2(=O)=O` (stereo not drawn), the IC50 is 8.64 µM (active) in [5] and 4.22 µM (active) in experiment [6].

As to `Cc1cc(NC(=O)C2CC(c3ccc(F)cc3)=NO2)n(-c2ccccc2)n1` (stereo not drawn), the EC50 in experiment [7] is > 100 µM (inactive).

As to `C=CCOc1ccc(Br)cc1CNCCCN1CCOCC1`, in experiment [3], the EC50 was 14.2 µM (active).

Take `COc1cc(C(=O)Nc2ccccc2F)ccc1OCc1ccc(Cl)cc1`: the IC50 (on Caspase-3; in experiment [8]; in experiment [9]; in experiment [10]) was > 99 µM (inactive) each time.

Take `COc1ccc(Oc2c(Cl)cnn(Cc3cccc4ccccc34)c2=O)cc1F`: the IC50 in [11] is 2.47 µM (active).

On to `CCNC(=O)[C@H]1O[C@@H](n2cnc3c(N)nc(NCCc4ccc(CCC(=O)O)cc4)nc32)[C@H](O)[C@@H]1O`, for which the EC50 in experiment [12] is < 0.088 µM (active); in experiment [13] it was > 112 µM (not active). The IC50 in experiment [5] was 0.915 µM (active); in [6] it was 0.807 µM (active).
